The term IC50 denotes the concentration at which inhibition is half-maximal.

In ChEMBL document CHEMBL3632516, “Influence of polar side chains modifications on the dual enkephalinase inhibitory activity and conformation of human opiorphin, a pain perception related peptide” (Bioorg Med Chem Lett, 2015) one finds IC50 data, which are given here for 5 molecules.

Residues, ends and D or L forms follow the SMILES beside them. *: point of attachment. X1 = CC(=O)N[C@@H]1[C@@H](O)[C@H](O)[C@@H](CO)O[C@@H]1*

One assay concerns the target Aminopeptidase N (Homo sapiens, UniProt P15144). Description: Inhibition of human recombinant aminopeptidase N using […] as substrate after 20 to 40 mins by fluorometry.
Another assay concerns the target Neprilysin (Homo sapiens, UniProt P08473). Description: Inhibition of human recombinant neutral endopeptidase using […] as substrate after 20 to 40 mins by fluorometry.

Neprilysin, sequence (P08473 whole entry): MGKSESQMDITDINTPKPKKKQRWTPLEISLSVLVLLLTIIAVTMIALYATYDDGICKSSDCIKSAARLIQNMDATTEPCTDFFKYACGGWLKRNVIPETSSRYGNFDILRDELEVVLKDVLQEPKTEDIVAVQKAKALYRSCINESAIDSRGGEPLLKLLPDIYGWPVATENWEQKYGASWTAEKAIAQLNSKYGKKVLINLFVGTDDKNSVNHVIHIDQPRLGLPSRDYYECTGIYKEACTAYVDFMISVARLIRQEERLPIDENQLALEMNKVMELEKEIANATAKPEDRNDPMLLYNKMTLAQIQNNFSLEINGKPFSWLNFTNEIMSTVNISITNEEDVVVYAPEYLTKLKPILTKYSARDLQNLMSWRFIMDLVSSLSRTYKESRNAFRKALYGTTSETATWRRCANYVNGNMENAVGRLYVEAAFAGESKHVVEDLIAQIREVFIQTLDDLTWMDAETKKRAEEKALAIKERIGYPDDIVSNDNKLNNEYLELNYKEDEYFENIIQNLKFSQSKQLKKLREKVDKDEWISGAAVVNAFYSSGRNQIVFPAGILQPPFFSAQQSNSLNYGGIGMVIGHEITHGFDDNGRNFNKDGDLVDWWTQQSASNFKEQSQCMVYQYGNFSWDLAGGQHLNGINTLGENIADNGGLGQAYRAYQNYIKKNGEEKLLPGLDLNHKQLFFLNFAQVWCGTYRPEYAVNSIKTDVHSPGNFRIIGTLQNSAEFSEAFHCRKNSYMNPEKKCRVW
Aminopeptidase N, sequence (P15144 whole entry): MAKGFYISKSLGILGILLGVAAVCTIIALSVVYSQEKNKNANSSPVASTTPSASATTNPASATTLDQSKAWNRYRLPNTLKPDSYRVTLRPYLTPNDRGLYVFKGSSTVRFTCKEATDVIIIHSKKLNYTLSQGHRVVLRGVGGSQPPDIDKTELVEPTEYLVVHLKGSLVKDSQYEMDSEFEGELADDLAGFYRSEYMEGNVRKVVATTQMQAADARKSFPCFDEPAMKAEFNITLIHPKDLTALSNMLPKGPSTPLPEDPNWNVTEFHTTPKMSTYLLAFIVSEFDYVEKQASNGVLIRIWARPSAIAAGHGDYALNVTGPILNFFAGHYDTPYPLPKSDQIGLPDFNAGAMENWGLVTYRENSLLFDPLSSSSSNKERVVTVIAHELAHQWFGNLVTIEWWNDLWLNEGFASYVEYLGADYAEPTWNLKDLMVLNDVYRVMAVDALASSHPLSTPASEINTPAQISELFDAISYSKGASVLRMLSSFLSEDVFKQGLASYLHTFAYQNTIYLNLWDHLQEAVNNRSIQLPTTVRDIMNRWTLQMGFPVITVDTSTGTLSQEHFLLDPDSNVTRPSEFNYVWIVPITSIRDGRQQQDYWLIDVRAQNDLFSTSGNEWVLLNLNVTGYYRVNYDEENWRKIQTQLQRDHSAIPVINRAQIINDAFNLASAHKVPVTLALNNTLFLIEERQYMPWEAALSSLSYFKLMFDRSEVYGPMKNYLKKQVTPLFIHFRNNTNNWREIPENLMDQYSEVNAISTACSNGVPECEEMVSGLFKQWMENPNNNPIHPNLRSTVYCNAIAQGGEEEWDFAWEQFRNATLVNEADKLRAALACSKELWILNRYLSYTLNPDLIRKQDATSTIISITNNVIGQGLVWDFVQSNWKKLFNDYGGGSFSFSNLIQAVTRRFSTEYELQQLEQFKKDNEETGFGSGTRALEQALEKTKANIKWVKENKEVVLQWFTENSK

As for `CC(=O)N[C@H]1[C@@H](O[C@H](C)[C@H](NC(=O)[C@H](Cc2ccccc2)NC(=O)[C@H](CCCNC(=N)N)NC(=O)[C@@H](N)CCC(N)=O)C(=O)N[C@@H](CCCNC(=N)N)C(=O)O)O[C@H](CO)[C@@H](O)[C@@H]1O` (H-QRFT(X1)R-OH), the 50% inhibitory concentration (IC50) at Aminopeptidase N and on Neprilysin was more than 100 µM each time.
H-QKFSR-OH: the results for the 50% inhibitory concentration (IC50) at Aminopeptidase N and at Neprilysin were more than 70 µM and 50 µM, respectively.
On to H-QRFCR-OH, for which the IC50 at Neprilysin was more than 100 µM.
In the case of H-QRFSK-OH, the half-maximal inhibitory concentration (IC50) at Aminopeptidase N was more than 70 µM; on Neprilysin, 35 µM.
Turning to H-QRFTR-OH, the IC50 at Aminopeptidase N and on Neprilysin was more than 100 µM in each case.
